Experiment [1] deals with R6/2 mice. Put plainly: Fasting blood insulin in R6/2 mice (ELISA). As to conditions: 11-week old R6/2 mice. The format is in vivo, mouse. Here is the method: (§1) A colony of transgenic mice strain R6/2 that is heterozygous for htt exon1 (containing 145 CAG repeats) was maintained, with founders originating and available from The Jackson Laboratory (Bar Harbor, Me., USA). Male transgenic R6/2 mice were bred with background strain (B6CBAFI/J) females. Genotyping was done according to Hockly et al, Brain Res Bull 61, 469-479, 2003. CQ in water was orally administered to mice at 30 mg/kg/day starting at 3 weeks of age and continued until the mice were deceased or sacrificed for tissues. Littermate R6/2 mice were gavaged with water vehicle alone. At the end of CQ treatment mice were anesthetized and transcardially perfused with PBS followed by 4% v/v paraformaldehyde. Blood glucose levels were determined after at least 8 hrs of fasting in 11-week old mice (n=6 for wild-type, n=4 for vehicle-treated R6/2, n=6 for CQ-treated R6/2 littermates) using a 2300 STAT Plus glucose analyzer (YSI, Yellowsonte, Ohio, USA). Fasting blood insulin levels in animals fasted for 8 hrs were measured using an Ultra Sensitive Rat Insulin ELISA Kit (Crystal Chem, Inc., Downers Grove, Ill., USA) according to manufacturer's instructions.
Consistent with the blood glucose level was a reciprocal change in blood insulin levels.
Data are mean+s.e.m. n≧4 for each treatment group. *P<0.0004 for glucose, **P=0.0065 for insulin levels comparing vehicle and CQ-treated groups.

The next experiment deals with Htt exon1-Q103-egfp. Nature of the experiment: Proteasome inhibitor MG132 treatment of CQ-treated Htt exon1-Q103-egfp-expressing HEK293 cells. It is filed as cell-based. The conditions noted are these: pan-proteasome inhibitor MG132. Here is the method: HEK293 or PC12 cells were lysed in PBS buffer containing 1% v/v Triton X-100 and protease inhibitor cocktail (Roche, Indianapolis, Ind.), and passed through a 28 gauge needle to ensure the release of Htt inclusions from the nuclei. Whole mouse brains were homogenized in 50 mM Tris-HCl (pH 7.4), 150 mM NaCl, 1% v/v Triton X-100 and complete protease inhibitor cocktail. Brain homogenate was pre-cleared by centrifuging at 7,500 g for 90 s at 4° C. The supernatant was passed through a 28-gauge needle and boiled in SDS sample buffer for 10 min. Fifty μg of total protein was loaded onto 10% w/v SDS gel containing a 4% w/v stacking gel. Monoclonal antibodies anti-polyglutamine (1:2,000), anti-GAPDH (1:10,000), anti-GFP (1:4,000), and anti-Htt (EM48) in 1:1000 dilution were used for immunoblotting. All western blot experiments were performed at least three times and band intensities were averaged.
In examining potential mechanisms for the effects of CQ on Htt accumulation, we considered the possibilities that CQ might act to inhibit Htt aggregation or directly influence Htt synthesis or degradation. […] Therefore, we focused on the aspects of Htt synthesis and turnover. To determine whether CQ might down-regulate polyQ-Htt expression at the transcriptional level, we examined the amount of Htt^exon1-Q103-egfp mRNA present after 48 hrs of transfection by Northern analysis. […]

Experiment [2] deals with R6/2 mice. Put plainly: Foot clasping test in R6/2 mice. The format is in vivo, mouse. As to conditions: R6/2 mice at 10 weeks. Here is the method: as §1, with “At the end of CQ treatment mice were anesthetized and transcardially perfused with PBS followed by 4% v/v paraformaldehyde.” left out
Rotarod performance (n≧6 for each treatment group) was assessed as described by Hockly et al., 2003 Supra with the modification that the SDI Rota-Rod (San Diego Instruments, San Diego, Calif.) was set to linearly increase in speed to 40 rpm in 4 min ramp time. […]

The next experiment deals with aggregated huntingtin. Put plainly: Western blotting of aggregated huntingtin in whole-brain extracts of R6/2 mice. It is filed as in vivo, mouse. As to conditions: 8 weeks daily oral CQ 30 mg/kg/day. (In western blotting, separated proteins are transferred to a membrane and probed.)
Experiment [3] relates to R6/2 mice. Nature of the experiment: Lateral ventricle area (striatal atrophy) in R6/2 mice. The conditions noted are these: 11-week old, oral CQ 30 mg/kg/day, versus sham treatment group. It is filed as in vivo, mouse. Here is the method:
as §1
Plasma membrane integrity was evaluated using propidium iodide at 20 μg/ml final concentration. Approximately 200 cells transfected with the Htt^exon1-Q103-egf plasmid were counted for each treatment group 48 hr after transfection. […]

Marks after values point to notes of the source that are not given here.

`Oc1c(I)cc(Cl)c2cccnc12` [CQ, 5-chloro-7-iodo-8-hydroxy-quinoline]: the fasting blood insulin level in the experiment with R6/2 mice [1] (CQ treated group) was 415 ± 54.6 pg/mL. The Insulin level in the experiment on R6/2 mice [1] (fasting, CQ-treated, mean ± s.e.m. (Table 3)) is recorded as 415 ± 54.60** pg/ml. In addition, in the experiment on Htt exon1-Q103-egfp, the “suppression of exon1-Q103-egfp protein production by CQ under MG132 treatment” value is “not affected”. Further, in the experiment with R6/2 mice [2] (score of 3 maximum, oral CQ 30 mg/kg/day), the average clasping score is reported as 1.3. The “reduction of average clasping score” value in the experiment on R6/2 mice [2] (versus vehicle (2.5)) came out at 48%. In addition, the “reduction in the quantity of aggregated huntingtin” value in the experiment on aggregated huntingtin came out at 3.9 fold. The “reduction of lateral ventricle area” value with R6/2 mice [3] was found to be 55%.

The values above are taken from US20070270462A1, “8-hydroxyquinoline compounds for treating a polyglutamine (polyQ)-expansion disease” (priority 2005, published 2007).
